As usually defined, the melting point is the temperature, or range, at which the solid turns liquid.

Compound `Cc1ccn(-c2ccc(C(=O)N3Cc4cccn4Cc4ccccc43)c(Cl)c2)n1` [Isomer A] registered a melting point of 141 to 143 °C.

Source of the values: patent US6437006B1, “Pharmaceutical carrier formulation” (American Cyanamid Company, priority 1999, dated 2002).
